{"source": "paper PMC8359396", "about": "“Pharmacological validation of TDO as a target for Parkinson’s disease” (The Febs Journal, 2021)", "key": {"[1]": {"target": "T1, human MDR1 P-glycoprotein (ABCB1) (Homo sapiens, UniProt P08183)", "T1 construct": "host or cells: MDCK (canine kidney)", "T1 sequence (P08183 whole entry)": "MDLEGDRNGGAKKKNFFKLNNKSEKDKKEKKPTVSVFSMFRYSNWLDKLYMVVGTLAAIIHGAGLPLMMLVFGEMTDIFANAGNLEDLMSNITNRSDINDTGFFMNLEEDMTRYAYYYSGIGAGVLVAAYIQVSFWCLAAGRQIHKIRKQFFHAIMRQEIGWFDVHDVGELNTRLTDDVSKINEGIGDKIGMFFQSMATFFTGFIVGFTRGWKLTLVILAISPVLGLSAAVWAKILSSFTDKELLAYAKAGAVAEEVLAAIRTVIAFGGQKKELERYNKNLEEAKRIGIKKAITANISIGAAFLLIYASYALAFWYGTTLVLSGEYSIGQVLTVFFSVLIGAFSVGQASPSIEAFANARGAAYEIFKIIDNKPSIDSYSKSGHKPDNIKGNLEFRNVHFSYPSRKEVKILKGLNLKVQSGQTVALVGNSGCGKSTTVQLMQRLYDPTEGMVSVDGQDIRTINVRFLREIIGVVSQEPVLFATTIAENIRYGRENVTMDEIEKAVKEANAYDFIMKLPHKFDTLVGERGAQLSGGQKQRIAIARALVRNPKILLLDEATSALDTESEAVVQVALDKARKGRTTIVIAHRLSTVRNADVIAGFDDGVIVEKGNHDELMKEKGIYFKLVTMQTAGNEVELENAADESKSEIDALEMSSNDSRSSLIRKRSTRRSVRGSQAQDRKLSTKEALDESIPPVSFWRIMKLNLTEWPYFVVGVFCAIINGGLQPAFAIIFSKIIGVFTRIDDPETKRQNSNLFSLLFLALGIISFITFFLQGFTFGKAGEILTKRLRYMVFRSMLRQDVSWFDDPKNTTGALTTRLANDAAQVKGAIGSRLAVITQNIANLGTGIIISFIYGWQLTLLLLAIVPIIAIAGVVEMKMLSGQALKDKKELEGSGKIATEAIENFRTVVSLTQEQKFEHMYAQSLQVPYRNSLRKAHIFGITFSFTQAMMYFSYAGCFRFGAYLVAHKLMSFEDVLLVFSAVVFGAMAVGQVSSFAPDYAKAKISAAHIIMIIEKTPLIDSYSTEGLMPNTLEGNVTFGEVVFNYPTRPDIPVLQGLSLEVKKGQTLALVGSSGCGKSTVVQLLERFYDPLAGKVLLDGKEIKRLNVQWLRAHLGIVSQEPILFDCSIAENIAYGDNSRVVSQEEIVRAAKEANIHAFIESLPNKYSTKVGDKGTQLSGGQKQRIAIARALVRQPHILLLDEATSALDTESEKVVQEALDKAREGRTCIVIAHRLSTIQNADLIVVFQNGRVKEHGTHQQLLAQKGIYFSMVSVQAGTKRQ", "assay": "Bi‐directional transport assay, MDCK‐MDR1 monolayer", "format": "in vitro ADME", "settings": "dog; MDCK‐MDR1; Elacridar −", "experimental": "To determine whether NTRC 3531‐0 could potentially enter the brain, a bi‐directional transport assay was performed with Madin‐Darby canine kidney (MDCK) cells overexpressing the human ABCB1 gene‐encoded MDR1 P‐glycoprotein (MDCK‐MDR1) at Cyprotex (Macclesfield, UK). MDCK‐MDR1 cells form a confluent monolayer in Transwell® cell culture plates (Corning) and express active MDR1 P‐glycoprotein at the apical side. The cell model is a surrogate model of the brain capillary endothelial cell layer that constitutes the blood–brain barrier. The transport of NTRC 3531‐0 from the apical (A) to the basolateral (B) side of the monolayer (P app, A to B), and from basolateral (B) to apical (A) (P app, B to A), was determined by measuring compound levels in the two compartments of the Transwell plates by liquid chromatography–tandem mass spectrometry (LC‐MS/MS) (Table 2). Transport assays were performed in the absence and presence of the P‐glycoprotein inhibitor elacridar."}, "CYP1A2": {"target": "CYP1A2 (Homo sapiens, UniProt P05177)", "assay": "CYP enzyme panel", "format": "biochemical", "excerpt": "(§1) Since TDO contains a heme center, similar to cytochrome P450 (CYP) enzymes, we evaluated the selectivity of NTRC 3531‐0 on a panel of seven CYP enzymes, that is, CYP1A2, CYP2B6, CYP2C8, CYP2C9, CYP2C19, CYP2D6, and CYP3A4."}, "CYP2C9": {"target": "CYP2C9 (Homo sapiens, UniProt P11712)", "sequence (P11712 whole entry)": "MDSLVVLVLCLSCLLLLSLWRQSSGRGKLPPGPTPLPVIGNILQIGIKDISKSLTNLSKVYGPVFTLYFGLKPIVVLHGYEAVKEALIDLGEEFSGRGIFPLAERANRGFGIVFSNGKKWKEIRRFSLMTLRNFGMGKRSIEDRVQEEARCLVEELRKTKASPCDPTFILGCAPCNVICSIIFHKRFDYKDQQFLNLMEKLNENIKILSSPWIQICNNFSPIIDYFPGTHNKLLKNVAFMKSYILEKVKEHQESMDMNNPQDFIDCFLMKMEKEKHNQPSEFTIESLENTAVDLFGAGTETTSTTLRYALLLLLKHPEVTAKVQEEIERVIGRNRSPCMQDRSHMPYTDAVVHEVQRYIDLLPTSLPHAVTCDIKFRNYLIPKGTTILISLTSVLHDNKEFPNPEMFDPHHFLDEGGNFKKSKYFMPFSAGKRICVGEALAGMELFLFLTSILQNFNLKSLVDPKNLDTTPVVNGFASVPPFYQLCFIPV", "assay": "CYP enzyme panel", "format": "biochemical", "excerpt": "as §1"}, "CYP2C19": {"target": "CYP2C19 (Homo sapiens, UniProt P33261)", "sequence (P33261 whole entry)": "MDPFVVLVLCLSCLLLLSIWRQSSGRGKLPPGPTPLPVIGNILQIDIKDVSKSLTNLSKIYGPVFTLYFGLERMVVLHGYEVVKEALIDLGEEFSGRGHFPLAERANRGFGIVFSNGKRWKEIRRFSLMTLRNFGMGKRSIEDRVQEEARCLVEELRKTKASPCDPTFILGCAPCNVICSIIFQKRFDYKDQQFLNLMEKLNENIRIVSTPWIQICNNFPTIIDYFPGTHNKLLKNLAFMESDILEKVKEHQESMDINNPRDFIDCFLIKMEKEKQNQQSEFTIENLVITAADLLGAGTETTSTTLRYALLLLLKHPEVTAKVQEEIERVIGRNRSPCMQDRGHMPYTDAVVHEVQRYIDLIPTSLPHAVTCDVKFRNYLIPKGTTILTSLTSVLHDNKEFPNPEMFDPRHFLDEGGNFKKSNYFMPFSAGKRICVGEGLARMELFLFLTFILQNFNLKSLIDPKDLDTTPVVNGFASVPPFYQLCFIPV", "assay": "CYP enzyme panel", "format": "biochemical", "excerpt": "as §1"}, "CYP3A4": {"target": "CYP3A4 (Homo sapiens, UniProt P08684)", "sequence (P08684 whole entry)": "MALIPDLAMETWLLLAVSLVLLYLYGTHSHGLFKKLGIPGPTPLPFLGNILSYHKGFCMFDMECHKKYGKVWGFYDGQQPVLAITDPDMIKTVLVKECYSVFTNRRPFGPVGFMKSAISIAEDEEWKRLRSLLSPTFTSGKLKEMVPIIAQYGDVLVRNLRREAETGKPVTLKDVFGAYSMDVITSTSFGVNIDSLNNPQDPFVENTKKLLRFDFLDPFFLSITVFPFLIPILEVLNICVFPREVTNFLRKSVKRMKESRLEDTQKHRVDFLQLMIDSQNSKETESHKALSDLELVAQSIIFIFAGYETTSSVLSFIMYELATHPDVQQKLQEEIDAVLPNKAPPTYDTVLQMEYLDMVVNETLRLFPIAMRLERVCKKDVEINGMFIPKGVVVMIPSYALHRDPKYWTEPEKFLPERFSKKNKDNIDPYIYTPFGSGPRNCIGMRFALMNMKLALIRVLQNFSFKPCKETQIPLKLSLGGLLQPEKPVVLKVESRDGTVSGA", "assay": "CYP enzyme panel", "format": "biochemical", "excerpt": "as §1"}, "CYP2C8": {"target": "CYP2C8 (Homo sapiens, UniProt P10632)", "sequence (P10632 whole entry)": "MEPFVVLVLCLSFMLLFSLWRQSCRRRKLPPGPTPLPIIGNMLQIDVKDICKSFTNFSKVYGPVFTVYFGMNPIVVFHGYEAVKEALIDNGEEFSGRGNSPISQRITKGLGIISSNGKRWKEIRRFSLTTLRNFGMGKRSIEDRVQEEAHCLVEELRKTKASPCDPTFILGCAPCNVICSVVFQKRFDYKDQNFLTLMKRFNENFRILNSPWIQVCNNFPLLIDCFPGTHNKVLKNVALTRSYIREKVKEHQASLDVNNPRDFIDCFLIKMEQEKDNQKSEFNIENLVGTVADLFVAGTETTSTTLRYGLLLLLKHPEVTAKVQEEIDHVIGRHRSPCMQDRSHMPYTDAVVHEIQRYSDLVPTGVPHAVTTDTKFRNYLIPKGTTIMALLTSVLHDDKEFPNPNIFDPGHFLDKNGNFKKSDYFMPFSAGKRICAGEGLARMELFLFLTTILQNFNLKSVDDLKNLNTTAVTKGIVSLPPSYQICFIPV", "assay": "CYP enzyme panel", "format": "biochemical", "excerpt": "as §1"}, "CYP2D6": {"target": "CYP2D6 (Homo sapiens, UniProt P10635)", "sequence (P10635 whole entry)": "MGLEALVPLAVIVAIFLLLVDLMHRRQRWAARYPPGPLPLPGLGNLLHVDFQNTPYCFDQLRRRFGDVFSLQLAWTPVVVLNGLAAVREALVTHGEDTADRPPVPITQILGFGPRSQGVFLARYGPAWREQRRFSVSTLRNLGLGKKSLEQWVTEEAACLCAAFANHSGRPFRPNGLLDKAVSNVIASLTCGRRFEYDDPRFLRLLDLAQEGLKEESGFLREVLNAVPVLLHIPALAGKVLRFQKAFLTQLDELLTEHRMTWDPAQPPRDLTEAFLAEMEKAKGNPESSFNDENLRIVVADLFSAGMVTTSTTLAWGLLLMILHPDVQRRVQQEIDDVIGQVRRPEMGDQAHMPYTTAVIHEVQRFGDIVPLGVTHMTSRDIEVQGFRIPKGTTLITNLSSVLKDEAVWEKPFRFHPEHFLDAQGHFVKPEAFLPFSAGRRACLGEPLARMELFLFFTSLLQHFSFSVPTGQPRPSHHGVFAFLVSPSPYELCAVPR", "assay": "CYP enzyme panel", "format": "biochemical", "excerpt": "as §1"}, "CYP2B6": {"target": "CYP2B6 (Homo sapiens, UniProt P20813)", "assay": "CYP enzyme panel", "format": "biochemical", "excerpt": "as §1"}, "[2]": {"target": "T2, recombinant human TDO (hTDO) (Homo sapiens, UniProt P48775)", "T2 sequence (P48775 whole entry)": "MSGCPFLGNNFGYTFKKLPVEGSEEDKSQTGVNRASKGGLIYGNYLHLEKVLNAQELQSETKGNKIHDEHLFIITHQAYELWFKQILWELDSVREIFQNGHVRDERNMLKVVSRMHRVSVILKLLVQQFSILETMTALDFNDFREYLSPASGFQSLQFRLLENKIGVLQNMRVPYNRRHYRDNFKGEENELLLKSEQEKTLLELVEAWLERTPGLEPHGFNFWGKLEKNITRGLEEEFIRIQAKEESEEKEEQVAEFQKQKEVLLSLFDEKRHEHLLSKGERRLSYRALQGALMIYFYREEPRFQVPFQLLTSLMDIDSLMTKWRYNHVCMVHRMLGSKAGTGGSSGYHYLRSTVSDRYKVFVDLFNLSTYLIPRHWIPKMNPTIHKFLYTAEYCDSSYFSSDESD", "assay": "biochemical"}, "[3]": {"test_system": "rotenone‐induced mouse model of PD", "assay": "GFAP immunofluorescent staining of colon in rotenone model", "format": "in vivo, male C57BL/6NCrl mice", "settings": "rotenone mice", "experimental": "Parkinson’s disease is associated with the activation of glial cells in the enteric nervous system. Furthermore, aggregates of α‐synuclein have been observed in the enteric nervous system of PD patients. The expression of glial fibrillary acidic protein (GFAP), a marker of enteric glial cells, and of α‐synuclein was determined by immunofluorescent staining of fixed sections of the colons of the sacrificed mice.\nExpression of GFAP and α‐synuclein in colonic tissue was determined using confocal microscopy (Leica SP8). The colons of the mice were embedded in paraffin. Sections of 15 µm were cut and incubated with 0.3% (v/v) H2O2 for 30 min, rehydrated and incubated with citrate buffer. Following blocking with serum, the sections were incubated overnight with rabbit anti‐α‐synuclein (Millipore, cat. no. AB5038; Burlington, MA, USA) at a dilution of 1 : 1000, or rabbit anti‐GFAP (Dako, cat. no. Z0334), 1 : 1000. After incubation with Alexa® 488‐labeled donkey anti‐rabbit secondary antibody, the slides were mounted using Vectashield® medium for fluorescence with DAPI (Vector Laboratories, cat. no. H‐1000; Burlingame, CA, USA).\nImmunofluorescence images were made using a Keyence BZ‐9000 microscope. GFAP and α‐synuclein staining were quantified by calculation of the corrected total fluorescence (CTF) with the formula: integrated density – (area × mean fluorescence of background reading)."}, "[4]": {"target": "T2, recombinant human TDO (hTDO)"}, "[5]": {"test_system": "rotenone‐induced mouse model of PD", "assay": "TH‐positive (dopaminergic) cells in substantia nigra, iDISCO", "format": "in vivo, male C57BL/6NCrl mice", "settings": "rotenone mice, P < 0.01"}, "[6]": {"test_system": "rotenone‐induced mouse model of PD", "assay": "Spatial memory test in rotenone model", "settings": "rotenone mice, 42 days after surgery"}, "[7]": {"target": "human IDO1‐overexpressing HEK‐293 cells (HEK‐hIDO1) (Homo sapiens, UniProt P14902)", "sequence (P14902 whole entry)": "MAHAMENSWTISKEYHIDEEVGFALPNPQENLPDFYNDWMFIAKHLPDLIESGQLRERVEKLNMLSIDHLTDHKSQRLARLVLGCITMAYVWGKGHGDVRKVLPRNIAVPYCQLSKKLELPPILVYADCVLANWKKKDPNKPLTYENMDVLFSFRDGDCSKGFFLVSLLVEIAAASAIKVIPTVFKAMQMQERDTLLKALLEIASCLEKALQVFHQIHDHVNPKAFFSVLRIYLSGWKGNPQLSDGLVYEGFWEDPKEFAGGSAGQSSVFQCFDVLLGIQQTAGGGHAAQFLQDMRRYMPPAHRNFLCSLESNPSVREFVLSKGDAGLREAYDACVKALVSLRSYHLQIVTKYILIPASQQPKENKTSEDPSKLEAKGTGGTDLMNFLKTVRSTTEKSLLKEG", "assay": "Cell-based IDO1 assay, HEK‐hIDO1 cells (NFK Green)", "experimental": "Inhibition of Trp‐to‐NFK conversion in HEK‐hTDO, HEK‐hIDO1, and SW48 cells was measured with NFK Green, essentially as described previously for cancer cell lines. Cell density, incubation time, and Trp concentrations were optimized. For the TDO assay with HEK‐hTDO and SW48 cells, 200 µM Trp was added to the culture medium. No additional Trp was added for the IDO1 assay with HEK‐hIDO1 cells. The incubation time with compound was 42 h for the assays with HEK‐hTDO and HEK‐hIDO1 cells, and 18 h for the assay with SW48 cells."}, "[8]": {"test_system": "constitutively TDO‐expressing human glioblastoma A172 cell line", "design": "method as in PMID 31806638", "settings": "cited from earlier work"}, "[9]": {"test_system": "hTDO‐overexpressing HEK‐293 cells", "design": "method as in PMID 22308364", "settings": "originally reported; cited from earlier work"}}, "data": [{"compound": "C[C@@H](CO)NC(=O)c1ccc(-c2c[nH]c3cc(F)ccc23)cc1", "note": "[NTRC 3531‐0]", "values": [{"measurement": "Papp A→B", "setting": "[1]", "result": 15.7, "unit": "×10⁻⁶ cm/s"}, {"measurement": "Papp B→A", "setting": "[1]", "result": 52, "unit": "×10⁻⁶ cm/s"}, {"measurement": "efflux ratio", "setting": "[1]", "result": 3.32}, {"measurement": "IC50", "setting": "CYP1A2", "result": "> 31.6", "unit": "µM"}, {"measurement": "IC50", "setting": "CYP2C9", "result": "> 31.6", "unit": "µM"}, {"measurement": "IC50", "setting": "CYP2C19", "result": "> 31.6", "unit": "µM"}, {"measurement": "IC50", "setting": "CYP3A4", "result": "> 31.6", "unit": "µM"}, {"measurement": "IC50", "setting": "CYP2C8", "result": 16.3, "unit": "µM"}, {"measurement": "IC50", "setting": "CYP2D6", "result": "> 31.6", "unit": "µM"}, {"measurement": "IC50", "setting": "CYP2B6", "result": "> 31.6", "unit": "µM"}, {"measurement": "IC50", "setting": "[2]", "result": 0.49, "unit": "µM"}, {"measurement": "GFAP staining in colon", "setting": "[3]; highest two doses (50 and 100 mg·kg^−1), P < 0.0001 for both doses", "result": "decrease of GFAP staining"}, {"measurement": "selectivity for hTDO over hIDO1, biochemical assays", "setting": "[4]", "result": "more than 60 times"}, {"measurement": "rotenone‐induced loss of TH‐positive cells in the SN", "setting": "[5]; highest dose (100 mg·kg^−1)", "result": "decreased the rotenone‐induced loss of TH‐positive cells"}, {"measurement": "rotenone‐induced spatial recognition loss", "setting": "[6]; highest dose (100 mg·kg^−1), P < 0.001", "result": "significantly less rotenone‐induced spatial recognition loss"}, {"measurement": "IC50", "setting": "[7]; cell-based assay, read-out: Potency (IC50) HEK‐hIDO1 (converted)", "result": 20.7, "unit": "µM"}]}, {"compound": "Fc1ccc2c(/C=C/c3nnn[nH]3)c[nH]c2c1", "note": "[LM10, reference compound]", "values": [{"measurement": "Papp A→B", "setting": "[1]", "result": 5.63, "unit": "×10⁻⁶ cm/s"}, {"measurement": "Papp B→A", "setting": "[1]", "result": 1.58, "unit": "×10⁻⁶ cm/s"}, {"measurement": "IC50", "setting": "[8]", "result": 24, "unit": "µM"}, {"measurement": "GFAP staining in colon", "setting": "[3]; highest two doses: 25 mg·kg^−1, P < 0.001, 50 mg·kg^−1, P < 0.0001", "result": "decrease of GFAP staining"}, {"measurement": "rotenone‐induced loss of TH‐positive cells in the SN", "setting": "[5]; two highest doses (25 and 50 mg·kg^−1)", "result": "decreased the rotenone‐induced loss of TH‐positive cells"}, {"measurement": "rotenone‐induced spatial recognition loss", "setting": "[6]; highest dose (50 mg·kg^−1), similar trend", "result": "not statistically significant"}, {"measurement": "potency in hTDO‐overexpressing HEK‐293 cells", "setting": "[9]", "result": "high‐nanomolar potent inhibitor"}, {"measurement": "inhibition at 0.6 µM", "setting": "[7]; HEK293, read-out: inhibition HEK‐hIDO1", "result": "< 20", "unit": "%"}]}]}
